The subject of assay [1] is C. albicans ATCC 10231 (strain A). Description: MIC, broth microdilution (CLSI M27-A3), yeast strain A. The following applies: Candida albicans, ATCC10231; MIC-0, strain A, 35 °C 48 h. It counts as cell-based, Candida albicans. As to the method:
(§1) The final concentrations of compounds 3, 4, 7a, 7b, 9, and 16, as well as that of TOB tested in this study ranged from 0.24–62.5 μg/mL. CAS was used as a positive control and the final concentrations tested for CAS ranged from 0.03–31.3 μg/mL. Briefly, overnight yeast cultures were grown in yeast peptone dextrose (YPD) broth and the cell density was adjusted to an OD600 of 0.12 (~1 × 10^6 CFU/mL) by using a spectrophotometer. Yeast cell suspensions were further diluted to achieve 1–5 × 10^3 CFU/mL in RPMI 1640 medium, and 100 μL of these yeast cells was added to 96-well microtiter plates containing RPMI 1640 medium and titrated compounds. Each test was performed in triplicate. The plates were incubated at 35 °C for 48 h.

The subject of assay [2] is Candida glabrata ATCC 2001 (strain H). Description: MIC, broth microdilution (CLSI M27-A3), yeast strain H. The settings on record: Nakaseomyces glabratus, ATCC2001; MIC-0, strain H, 35 °C 48 h. It counts as cell-based. As to the method: as §1
For assay [3], the system named is Candida parapsilosis clinical isolate CP3. Description: MIC, broth microdilution (CLSI M27-A3), CP3. Format: cell-based. The following applies: MIC-0, CP3, 35 °C 48 h. As to the method: as §1
Assay [4] deals with Aspergillus nidulans ATCC 38163 (strain L). Put plainly: MIC, filamentous fungi (CLSI M38-A2), strain L. Format: cell-based. The settings on record: Aspergillus nidulans, ATCC38163, 72 h, MIC-0, strain L, 35 °C 72 h; read-out: MIC. As to the method: (§2) The spores were harvested from sporulating cultures growing on potato dextrose agar (PDA) by filtration through sterile glass wool and enumerated by using a hemocytometer (Hausser Scientific, Horsham, PA, USA) to obtain the desired inoculum size. Two-fold serial dilutions of compounds 3, 4, 7a, 7b, 9, and 16, as well as CAS and TOB were made in sterile 96-well microtiter plates to obtain the final concentration range of 0.24–62.5 μg/mL for TOB and TOB derivatives as well as 0.03–31.3 μg/mL for CAS in the RPMI 1640 medium. The spore suspensions were added to the wells to afford a final concentration of 5 × 10^5 spores/mL. The plates were incubated at 35 °C for 72 h. […] Each test was performed in triplicate.

Assay [5] deals with C. neoformans clinical isolates CN1-3. Description: MIC across C. neoformans clinical isolates CN1-3. It counts as cell-based, Cryptococcus neoformans. As to the method:
as §1

The subject of assay [6] is Candida parapsilosis ATCC 22019 (strain J). Put plainly: MIC, broth microdilution (CLSI M27-A3), yeast strain J. The following applies: Lodderomyces parapsilosis, ATCC22019; MIC-0, strain J, 35 °C 48 h. Format: cell-based. How it is done: as §1
Assay [7] concerns C. albicans ATCC 90819(R) (strain D). Description: MIC, broth microdilution (CLSI M27-A3), yeast strain D. It counts as cell-based. The settings on record: Candida albicans, ATCC90819; MIC-0, strain D, 35 °C 48 h. As to the method: as §1
Assay [8] concerns Cryptococcus neoformans clinical isolate CN2. Put plainly: MIC, broth microdilution (CLSI M27-A3), CN2. It counts as cell-based. The following applies: MIC-0, CN2, 35 °C 48 h. As to the method: as §1
Assay [9] concerns C. albicans ATCC 64124 (strain B). Put plainly: MIC, broth microdilution (CLSI M27-A3), yeast strain B. It counts as cell-based. The settings on record: Candida albicans, ATCC64124; MIC-0, strain B, 35 °C 48 h. How it is done:
as §1

The test system of assay [10] is Candida parapsilosis clinical isolate CP1. Description: MIC, broth microdilution (CLSI M27-A3), CP1. Format: cell-based. The following applies: Lodderomyces parapsilosis; MIC-0, CP1, 35 °C 48 h. As to the method: as §1
Assay [11] has as its system Candida glabrata clinical isolate CG1. Description: MIC, broth microdilution (CLSI M27-A3), CG1. It counts as cell-based. The following applies: Nakaseomyces glabratus; MIC-0, CG1, 35 °C 48 h. How it is done:
as §1

In assay [12] the test system is Cryptococcus neoformans clinical isolate CN3. Put plainly: MIC, broth microdilution (CLSI M27-A3), CN3. Format: cell-based. The settings on record: MIC-0, CN3, 35 °C 48 h. As to the method: as §1
The test system of assay [13] is C. albicans ATCC MYA-2310(S) (strain E). Put plainly: MIC, broth microdilution (CLSI M27-A3), yeast strain E. Format: cell-based. The settings on record: Candida albicans; MIC-0, strain E, 35 °C 48 h. As to the method: as §1
Assay [14] has as its system Aspergillus terreus ATCC MYA-3633 (strain M). Description: MIC, filamentous fungi (CLSI M38-A2), strain M. It counts as cell-based. The following applies: MIC-0, strain M, 35 °C 72 h. As to the method: as §2
The subject of assay [15] is Aspergillus flavus ATCC MYA-3631 (strain K). Description: MIC, filamentous fungi (CLSI M38-A2), strain K. It counts as cell-based. The following applies: Aspergillus flavus, 72 h, MIC-0, strain K, 35 °C 72 h; read-out: MIC. How it is done: as §2
For assay [16], the system named is Candida glabrata clinical isolate CG3. Put plainly: MIC, broth microdilution (CLSI M27-A3), CG3. Format: cell-based. The settings on record: Nakaseomyces glabratus; MIC-0, CG3, 35 °C 48 h. How it is done:
as §1

The subject of assay [17] is Candida krusei ATCC 6258 (strain I). Description: MIC, broth microdilution (CLSI M27-A3), yeast strain I. Format: cell-based. The following applies: Pichia kudriavzevii, ATCC6258; MIC-0, strain I, 35 °C 48 h. How it is done: as §1
Assay [18] relates to Candida parapsilosis clinical isolate CP2. Description: MIC, broth microdilution (CLSI M27-A3), CP2. The settings on record: Lodderomyces parapsilosis; MIC-0, CP2, 35 °C 48 h. Format: cell-based. How it is done:
as §1

Assay [19] deals with Cryptococcus neoformans clinical isolate CN1. Put plainly: MIC, broth microdilution (CLSI M27-A3), CN1. It counts as cell-based. The settings on record: MIC-0, CN1, 35 °C 48 h. How it is done: as §1
Assay [20] concerns C. albicans ATCC MYA-1237(R) (strain F). Description: MIC, broth microdilution (CLSI M27-A3), yeast strain F. Format: cell-based. The following applies: Candida albicans; MIC-0, strain F, 35 °C 48 h. How it is done:
as §1

Assay [21] has as its system C. albicans ATCC MYA-1003(R) (strain G). Description: MIC, broth microdilution (CLSI M27-A3), yeast strain G. Format: cell-based. The settings on record: Candida albicans; MIC-0, strain G, 35 °C 48 h. As to the method: as §1
Assay [22] relates to Candida glabrata clinical isolate CG2. Description: MIC, broth microdilution (CLSI M27-A3), CG2. Format: cell-based. The following applies: Nakaseomyces glabratus; MIC-0, CG2, 35 °C 48 h. How it is done: as §1
Assay [23] relates to C. albicans ATCC MYA-2876(S) (strain C). Description: MIC, broth microdilution (CLSI M27-A3), yeast strain C. Format: cell-based. The settings on record: Candida albicans; MIC-0, strain C, 35 °C 48 h. How it is done: as §1

Structures are written as SMILES. In brackets after ≈: the same amount, converted by molar mass.

For `CC[C@H](C)C[C@H](C)CCCCCCCCC(=O)N[C@H]1C[C@@H](O)[C@@H](NCCN)NC(=O)[C@@H]2[C@@H](O)CCN2C(=O)[C@H]([C@H](O)CCN)NC(=O)[C@H]([C@H](O)[C@@H](O)c2ccc(O)cc2)NC(=O)[C@@H]2C[C@@H](O)CN2C(=O)[C@H]([C@@H](C)O)NC1=O` [CAS, caspofungin, reference compound], the MIC in [1] was 0.975 µg/mL (≈ 0.892 µM); in assay [2] it was 0.06 µg/mL (≈ 0.0549 µM); in [3] it was 0.48 µg/mL (≈ 0.439 µM); in assay [4], above 31.3 µg/mL; in assay [6] it was 1.95 µg/mL (≈ 1.78 µM); in assay [7] it was 0.12 µg/mL (≈ 0.11 µM). Moreover, the MIC is 31.3 µg/mL (≈ 28.6 µM) in [8]; 0.24 µg/mL (≈ 0.22 µM) in assay [9]; 0.48 µg/mL (≈ 0.439 µM) in assay [10]; 1.95 µg/mL (≈ 1.78 µM) in assay [11]; 15.6 µg/mL (≈ 14.3 µM) in assay [12]; 0.12 µg/mL (≈ 0.11 µM) in assay [13]. For the same molecule, the MIC in assay [14] is above 31.3 µg/mL; in [15], above 31.3 µg/mL; in [16], 0.975 µg/mL (≈ 0.892 µM); in [17], 0.48 µg/mL (≈ 0.439 µM); in [18], 0.48 µg/mL (≈ 0.439 µM); in [19], 15.6 µg/mL (≈ 14.3 µM). Further, the MIC amounted to 0.24 µg/mL (≈ 0.22 µM) in assay [20], 0.48 µg/mL (≈ 0.439 µM) in assay [21], 0.24 µg/mL (≈ 0.22 µM) in assay [22] and 0.06 µg/mL (≈ 0.0549 µM) in assay [23]. For the same molecule, the MIC values entry in assay [5] is recorded as “low to no activity”.

Source of the values: paper PMC5971061, “Differential Effects of Linkers on the Activity of Amphiphilic Tobramycin Antifungals” (Molecules : A Journal of Synthetic Chemistry and Natural …, 2018).
